# Source: publication PMC7665192, “A natriuretic peptide from Arabidopsis thaliana (AtPNP-A) can modulate catalase 2 activity” (Scientific Reports, 2020)
# Positions of bridges follow the written chain, without caps; N, C: chain ends. Residues, ends and D or L forms follow the SMILES beside them. *: point of attachment. Biotin = O=C1N[C@H]2[C@H](CS[C@H]2CCCCC(=O)*)N1
# Key:
# bovine CAT = assay: Isothermal titration calorimetry (ITC); assay type: binding; conditions: 100 μM pAtPNP-A as titrant, PBS pH 7.4, 25 °C, 30 injections
# Protocol: ITC experiments were undertaken using MicroCal iTC200 (Malvern Panalytical) calorimeter. The titrations were conducted at 25 °C in PBS buffer at pH 7.4, with 100 μM pAtPNP-A used as a titrant. Total number of injections was set at 30, reference power was 11 μcal s^−1, initial delay was 60 s, and stirring speed was 750 rpm.
# cGMP = conditions: cited from earlier work
# From the text: Similarly, identification of novel receptors targeted by an increasing number of peptidic plant hormones discovered in the last few decades[8],[9] is anticipated. One of those, the plant natriuretic peptides (PNPs), are a group of systemically mobile signals[10] that have a role in the maintenance of salt and water balance[11],[12]. An A. thaliana PNP, termed AtPNP-A (At2g18660; Q9ZV52), has been implicated in several physiological processes ranging from the regulation of stomatal aperture, osmoticum-dependent volume changes[13],[14] and modulation of developmental stage- and tissue-specif ... || A PNP_CAT interaction in plant responses to infecting pathogens is not surprising. CATs commonly function to down-regulate ROS during ABA-induced stomatal closure, and ABA-induced stomatal closure can be inhibited by removal of H2O2 via CAT2[73],[74]. […] Therefore, it is tempting to speculate that AtPNP-A modulates the effect of ABA on stomatal aperture through the interaction w ...
# P. syringae = system: P. syringae; set-up: method as in PMID 32409317, PMID 28401640; conditions: cited from earlier work
# stomata = conditions: cited from earlier work
# From the text: A PNP_CAT interaction in plant responses to infecting pathogens is not surprising. CATs commonly function to down-regulate ROS during ABA-induced stomatal closure, and ABA-induced stomatal closure can be inhibited by removal of H2O2 via CAT2[73],[74]. […] Therefore, it is tempting to speculate that AtPNP-A modulates the effect of ABA on stomatal aperture through the interaction w ...
# [1] = system: Basic-leucine zipper (bZIP) TF family protein; assay: Yeast two-hybrid (Y2H) screen; assay type: binding, A. thaliana; conditions: bait AtPNP-A amino acids 26–130, prey At2g31370.1
# Protocol: (§1) The Y2H screen using AtPNP-A as bait was carried out by Dualsystems Biotech AG (Zurich, Switzerland). The bait construct for the screening was made by subcloning the cDNA fragment encoding exported portion of AtPNP-A (amino acids 26 to 130) (Fig. 1a) into the pLexA-DIR vector (Dualsystems Biotech AG). The bait construct was transformed into the strain NMY32 (MATa his3Δ200 trp1-901 leu2-3,112 (lexAop)8-ADE2 LYS2::(lexAop)4-HIS3 URA3::(lexAop)8-lacZ GAL4) using standard procedures. Correct expression of the bait was verified by western blotting of cell extracts using a mouse monoclonal antibody directed against the LexA domain (Dualsystems Biotech AG). The absence of self-activation was verified by co-transformation of the bait together with a control prey and selection on minimal medium lacking tryptophan, leucine, and histidine (selective medium). For the Y2H screen, the bait was co-transformed together with a normalized A. thaliana universal P02403 cDNA library (Dualsystems Biotech AG) into NMY32. 3.1 × 10^6 transformants were screened, yielding 96 transformants that grew on selective medium. […] Library plasmids were isolated from positive clones. The identity of positive interactants was determined by sequencing. DNA sequences translated in all three reading frames and searching against the SwissProt database using the BLASTX algorithm (https://blast.ncbi.nlm.nih.gov).
# RCA, rubisco activase = assay: Yeast two-hybrid (Y2H) screen; assay type: binding, A. thaliana; conditions: bait AtPNP-A amino acids 26–130, prey At2g39730.1
# Protocol: as §1
# [2] = system: ER, enhanced of rudimentary homologue, ATER; assay: Yeast two-hybrid (Y2H) screen; assay type: binding, A. thaliana; conditions: bait AtPNP-A amino acids 26–130, prey At5g10810.1
# Protocol: as §1
# FED A, ferredoxin 2 = assay: Yeast two-hybrid (Y2H) screen; assay type: binding, A. thaliana; conditions: bait AtPNP-A amino acids 26–130, prey At1g60950.1
# Protocol: as §1
# [3] = system: CRF6, cytokinin response factor 6; assay: Yeast two-hybrid (Y2H) screen; assay type: binding, A. thaliana; conditions: bait AtPNP-A amino acids 26–130, prey At3g61630.1
# Protocol: as §1
# NUDX1, nudix hydrolase 1 = assay: Yeast two-hybrid (Y2H) screen; assay type: binding, A. thaliana; conditions: bait AtPNP-A amino acids 26–130, prey At1g68760.1
# Protocol: as §1
# Unknown protein = assay: Yeast two-hybrid (Y2H) screen; assay type: binding, A. thaliana; conditions: bait AtPNP-A amino acids 26–130, prey At5g39570.1
# Protocol: as §1
# [4] = system: MAC5S, MOS4-associated complex subunit 5C; assay: Yeast two-hybrid (Y2H) screen; assay type: binding, A. thaliana; conditions: bait AtPNP-A amino acids 26–130, prey At5g07060.1
# Protocol: as §1
# [5] = system: IGPD, imidazole glycerol-phosphate dehydratase; assay: Yeast two-hybrid (Y2H) screen; assay type: binding, A. thaliana; conditions: bait AtPNP-A amino acids 26–130, prey At3g22425.1
# Protocol: as §1
# Expr, expansin-like B1 = assay: Yeast two-hybrid (Y2H) screen; assay type: binding, A. thaliana; conditions: bait AtPNP-A amino acids 26–130, prey At4g17030.1
# Protocol: as §1
# CAT2, catalase 2 = assay: Yeast two-hybrid (Y2H) screen; assay type: binding, A. thaliana; conditions: bait AtPNP-A amino acids 26–130, prey At4g35090.1
# Protocol: as §1
# COL1, constans-like 1 = assay: Yeast two-hybrid (Y2H) screen; assay type: binding, A. thaliana; conditions: bait AtPNP-A amino acids 26–130, prey At5g15850.1
# Protocol: as §1
# [6] = system: RAP2.12, ethylene response factor; assay: Yeast two-hybrid (Y2H) screen; assay type: binding, A. thaliana; conditions: bait AtPNP-A amino acids 26–130, prey At1g53910.1
# Protocol: as §1
# [7] = system: ADH5, alcohol dehydrogenase 2; assay: Yeast two-hybrid (Y2H) screen; assay type: binding, A. thaliana; conditions: bait AtPNP-A amino acids 26–130, prey At5g43940.1
# Protocol: as §1
# PLL4, poltergeist like 4 = assay: Yeast two-hybrid (Y2H) screen; assay type: binding, A. thaliana; conditions: bait AtPNP-A amino acids 26–130, prey At2g28890.1
# Protocol: as §1
# [8] = system: HISN5B, histidine biosynthesis 5B; assay: Yeast two-hybrid (Y2H) screen; assay type: binding, A. thaliana; conditions: bait AtPNP-A amino acids 26–130, prey At4g14910.1
# Protocol: as §1
Compound,ITC: conformational changes on binding (bovine CAT),Elevation of cGMP (cGMP),Role in response to P. syringae infection (P. syringae),Effect on ABA-induced stomatal closure (stomata),Strength of binding [1],"Strength of binding (RCA, rubisco activase)",Strength of binding [2],"Strength of binding (FED A, ferredoxin 2)",Strength of binding [3],"Strength of binding (NUDX1, nudix hydrolase 1)",Strength of binding (Unknown protein),Strength of binding [4],Strength of binding [5],"Strength of binding (Expr, expansin-like B1)","Strength of binding (CAT2, catalase 2)","Strength of binding (COL1, constans-like 1)",Strength of binding [6],Strength of binding [7],"Strength of binding (PLL4, poltergeist like 4)",Strength of binding [8]
CC(C)C[C@@H]1NC(=O)[C@H](CC(N)=O)NC(=O)[C@H](CC(N)=O)NC(=O)[C@H](CCCCN)NC(=O)[C@H](C(C)C)NC(=O)CNC(=O)[C@H](C(C)C)NC(=O)[C@H](C(C)C)NC(=O)[C@H](CC(C)C)NC(=O)[C@H]([C@@H](C)O)NC(=O)[C@H](CCC(=O)O)NC(=O)[C@H](CCCNC(=N)N)NC(=O)[C@H](CCC(N)=O)NC(=O)[C@H]([C@@H](C)O)NC(=O)CNC(=O)[C@H](Cc2ccc(O)cc2)NC(=O)[C@@H](NC(=O)[C@H](C)NC(=O)[C@H](CO)NC(=O)[C@H](CCCNC(=N)N)NC(=O)[C@@H](NC(=O)[C@H](Cc2ccc(O)cc2)NC(=O)[C@@H]2CCCN2)[C@@H](C)O)CSSC[C@@H](C(=O)NCC(=O)N[C@@H](CCCNC(=N)N)C(=O)N[C@@H](CCCNC(=N)N)C(=O)N[C@@H](Cc2ccc(O)cc2)C(=O)N[C@@H](CCCNC(=N)N)C(=O)N[C@H](C(=O)N[C@@H](CCCNC(=N)N)C(=O)N[C@@H](CCCCNC(=O)CCCC[C@@H]2SC[C@@H]3NC(=O)N[C@@H]32)C(=O)O)C(C)C)NC(=O)[C@H](C)NC(=O)[C@H](CCCNC(=N)N)NC(=O)CNC(=O)[C@H](CC(N)=O)NC(=O)[C@H](CCC(N)=O)NC(=O)[C@H](Cc2c[nH]c3ccccc23)NC1=O [pAtPNP-A] (H-PYTRSACYGTQRETLVVGVKNNLWQNGRACGRRYRVRK(Biotin)-OH; disulfide 7-30; N-terminus and C-terminus assumed),significant conformational changes occurring as a result of pAtPNP-A binding to bovine CAT,,,,,,,,,,,,,,,,,,,
"AtPNP-A: An A. thaliana PNP, termed AtPNP-A (At2g18660; Q9ZV52)",,"rapid elevation of 3′,5′-cyclic guanosine monophosphate (cGMP)",protective role in the response to infection with P. syringae,significantly delay and reduce the extent of ABA-induced stomatal closure,Weak,Strong,Weak,Weak,Weak,Moderate,Weak,Strong,Strong,Weak,Weak,Weak,Strong,Weak,Strong,Moderate
